Data published in the C3SDB collision cross section collection.
“And” between values parts separate entries of the source, which are not always exact repeats. Identical values can stand only once. Blank lines part the entries; values can stand above or below the compound they belong to.

Legend:
[1] = instrument: TW, calibrated with phosphatidylcholines (ESI+) and phosphatidylethanolamines (ESI-)
[2] = instrument: DT, single field
[3] = instrument: DT, single field, calibrated with Agilent tune mix (Agilent)
[4] = instrument: DT, stepped-field
[5] = instrument: TW, calibrated with phosphatidylcholines (ESI+) and phosphatidylethanolamines (ESI-); remark: listed apart in the source
[6] = instrument: DT, stepped-field; remark: listed apart in the source
[7] = instrument: DT, single field, calibrated with Agilent tune mix (Agilent); remark: listed apart in the source
[8] = [M+H]+; instrument: DT; stepped-field
[9] = [M+Na]+; instrument: DT; stepped-field

SMILES: N[C@@H](CSSC[C@H](N)C(=O)O)C(=O)O [L-Cystine]
- collision cross section (N2) ([6]; [M+H]+): 150.08 Å²
- collision cross section (N2) ([6]; [M+Na]+): 151.81 Å²
- collision cross section (N2) ([6]; [M-H]-): 144.39 Å²
- collision cross section (N2) ([7]; [M+H]+): 149.4 Å²

SMILES: CSCC[C@H](NC(=O)[C@H](CC(C)C)NC(=O)CNC(=O)[C@H](Cc1ccccc1)NC(=O)[C@H](Cc1ccccc1)NC(=O)[C@H](CCC(N)=O)NC(=O)[C@H](CCC(N)=O)NC(=O)[C@@H]1CCCN1C(=O)[C@H](CCCCN)NC(=O)[C@@H]1CCCN1C(=O)[C@@H](N)CCCN=C(N)N)C(N)=O [Substance P]
- collision cross section (N2) ([6]; [M+2H]2+): 399.88 Å²
- collision cross section (N2) ([6]; [M+3H]3+): 495.74 Å²
- collision cross section (N2) ([6]; [M+H]+): 362.51 Å²

SMILES: N[C@@H](CCC(=O)O)C(=O)O [L-Glutamate]
- collision cross section (N2) ([6]; [M-H]-): 125.65 Å²

SMILES: CCCCC/C=C\C/C=C\C/C=C\CCCCCCC(=O)O[C@H](COC(=O)CCCCCCC/C=C\CCCCCCCC)COP(=O)(O)OC[C@H](N)C(=O)O [PS(38:4)]
- collision cross section (N2) ([3]; [M+Na]+): 290.6 Å²
- collision cross section (N2) ([4]; [M-H]-): 291.4 Å²
- collision cross section (N2) ([5]; [M-H]-): 280.9 Å²

SMILES: N[C@@H](Cc1cnc[nH]1)C(=O)O [L-Histidine]
- collision cross section (N2) ([6]; [M+H]+): 132.74 Å²
- collision cross section (N2) ([6]; [M+Na]+): 135.48 Å²
- collision cross section (N2) ([6]; [M-H]-): 130.01 Å²
- collision cross section (N2) [8]: 132.41 Å²
- collision cross section (N2) ([7]; [M+H]+): 131.9 Å²

SMILES: O=c1[nH]c(=O)c2[nH]c(=O)[nH]c2[nH]1 [Uric acid]
- collision cross section (N2) ([6]; [M-H]-): 126.93 Å²

SMILES: O=C(O)[C@@H]1CCCN1 [L-Proline]
- collision cross section (N2) ([6]; [M+H]+): 126.22 Å²
- collision cross section (N2) [8]: 126.48 Å²
- collision cross section (N2) ([7]; [M+H]+): 125.1 Å²

SMILES: CC/C=C\C/C=C\C/C=C\CCCCCCCC(=O)O[C@H](COC(=O)CCCCCCCCC/C=C\CCCCCCCC)COP(=O)(O)OC[C@@H](O)CO [PG(38:4)]
- collision cross section (N2) ([3]; [M+NH4]+): 294.5 Å²
- collision cross section (N2) ([3]; [M+Na]+): 290.2 Å²
- collision cross section (N2) ([3]; [M-H]-): 278.7 Å²
- collision cross section (N2) ([4]; [M-H]-): 285.6 Å²
- collision cross section (N2) ([5]; [M+Na]+): 287.8 Å²
- collision cross section (N2) ([5]; [M-H]-): 277.7 Å²

SMILES: CCCCC/C=C\C/C=C\C/C=C\CCCCC(=O)O[C@H](COC(=O)CCCCCCCCC/C=C\C/C=C\CCCCC)COP(=O)(O)O[C@H]1C(O)C(O)C(O)[C@@H](O)C1O (stereo not given in full) [PI(38:5)]
- collision cross section (N2) ([3]; [M+H]+): 299.9 Å²
- collision cross section (N2) ([3]; [M+Na]+): 298.7 Å²
- collision cross section (N2) ([3]; [M-H]-): 291.8 Å²
- collision cross section (N2) ([4]; [M-H]-): 302 Å² and 299.6 Å²
- collision cross section (N2) ([5]; [M+Na]+): 294.5 Å²
- collision cross section (N2) ([5]; [M-H]-): 290.9 Å²

SMILES: CC/C=C\C/C=C\C/C=C\CCCCCCCC(=O)O [Linolenic acid]
- collision cross section (N2) ([6]; [M-H]-): 174.88 Å²

SMILES: CN1c2c(nc(N)[nH]c2=O)NCC1CNc1ccc(C(=O)N[C@H](CCC(=O)O)C(=O)O)cc1 (stereo not given in full) [5-Methyl-THF]
- collision cross section (N2) ([6]; [M+H]+): 197.52 Å²
- collision cross section (N2) ([6]; [M-H]-): 200.57 Å²

SMILES: Cc1ncc(COP(=O)(O)O)c(C=O)c1O [Pyridoxal Phosphate]
- collision cross section (N2) ([6]; [M+H]+): 151.94 Å²
- collision cross section (N2) ([6]; [M+Na]+): 161.4 Å²
- collision cross section (N2) ([6]; [M-H]-): 150.8 Å²

SMILES: NC(N)=NCCC[C@H](NC(=O)[C@H](Cc1ccccc1)NC(=O)[C@@H]1CCCN1C(=O)[C@H](CO)NC(=O)[C@H](Cc1ccccc1)NC(=O)CNC(=O)[C@@H]1CCCN1C(=O)[C@@H]1CCCN1C(=O)[C@@H](N)CCCN=C(N)N)C(=O)O [Bradykinin]
- collision cross section (N2) ([6]; [M+2H]2+): 343.33 Å²
- collision cross section (N2) ([6]; [M+3H]3+): 447.61 Å²
- collision cross section (N2) ([6]; [M+H]+): 315.25 Å²

SMILES: CCCCCC/C=C/CCCCCCCC(=O)OC[C@@H](O)COP(=O)([O-])OCC[N+](C)(C)C [LPC(16:1)]
- collision cross section (N2) ([3]; [M+HCOO]-): 231.3 Å²
- collision cross section (N2) ([4]; [M+H]+): 227.7 Å²
- collision cross section (N2) ([5]; [M+H]+): 223.4 Å²

SMILES: CC[C@H](C)[C@H](NC(=O)[C@H](Cc1ccc(O)cc1)NC(=O)[C@@H](NC(=O)[C@H](CCCN=C(N)N)NC(=O)[C@@H](N)CC(=O)O)C(C)C)C(=O)N[C@@H](Cc1cnc[nH]1)C(=O)N1CCC[C@H]1C(=O)N[C@@H](Cc1ccccc1)C(=O)N[C@@H](Cc1cnc[nH]1)C(=O)N[C@@H](CC(C)C)C(=O)O [Angiotensin I]
- collision cross section (N2) ([6]; [M+2H]2+): 387.3 Å²
- collision cross section (N2) ([6]; [M+3H]3+): 474.71 Å²
- collision cross section (N2) ([6]; [M+4H]4+): 549.24 Å²
- collision cross section (N2) ([6]; [M+H]+): 357.31 Å²

SMILES: CCCCC/C=C\C/C=C\CCCCCCCC(=O)OC[C@H](COP(=O)([O-])OCC[N+](C)(C)C)OC(=O)CCCCCCCCC/C=C\CCCCCC [PC(36:3)]
- collision cross section (N2) ([3]; [M+HCOO]-): 289.4 Å²
- collision cross section (N2) ([3]; [M+H]+): 288.8 Å²
- collision cross section (N2) ([3]; [M+Na]+): 291.9 Å²
- collision cross section (N2) ([4]; [M+H]+): 295.8 Å²
- collision cross section (N2) ([5]; [M+CH3COO]-): 291.6 Å²
- collision cross section (N2) ([5]; [M+H]+): 285.5 Å²

SMILES: CCCCC/C=C\C/C=C\C/C=C\C/C=C\CCCC(=O)O [Arachidonic acid]
- collision cross section (N2) ([6]; [M-H]-): 183.66 Å²

SMILES: CC(C)C[C@H](N)C(=O)O [L-Leucine]
- collision cross section (N2) ([6]; [M+H]+): 135.56 Å²
- collision cross section (N2) ([6]; [M-H]-): 132.51 Å²
- collision cross section (N2) [8]: 135.16 Å²

More lines, now with the values ahead:

- collision cross section (N2) ([1]; [M+K]+): 315.3 Å²
- collision cross section (N2) ([1]; [M+NH4]+): 315.2 Å²
- collision cross section (N2) ([1]; [M+Na]+): 312.4 Å²
SMILES: CCCCCCCCCCCCCCC=CCC(=O)OC[C@H](CO[C@@H]1O[C@H](CO[C@H]2O[C@H](CO)[C@H](O)C(O)C2O)[C@H](O)C(O)C1O)OC(=O)CC=CCCCCCCCCCCCCCC (stereo not given in full) [DGDG(36:2)]

- collision cross section (N2) ([1]; [M-H]-): 255.3 Å²
SMILES: CCCC/C=C\CCCCCCCC(=O)O[C@H](CO/C=C\CCCCCCCCCCCCCC)COP(=O)(O)OC[C@@H](O)CO [PG(p30:1)]

- collision cross section (N2) ([2]; [M+H]+): 288.83 Å² and 290.58 Å²
- collision cross section (N2) ([2]; [M+Na]+): 293.18 Å²
- collision cross section (N2) ([3]; [M+HCOO]-): 291 Å²
- collision cross section (N2) ([3]; [M+H]+): 291.3 Å²
- collision cross section (N2) ([3]; [M+Na]+): 295.1 Å²
- collision cross section (N2) ([4]; [M+H]+): 303.1 Å²
- collision cross section (N2) ([5]; [M+CH3COO]-): 293.3 Å²
- collision cross section (N2) ([5]; [M+H]+): 288.5 Å²
SMILES: CCCCCC/C=C\CCCCCCCCCC(=O)O[C@H](COC(=O)CCCCCCC/C=C\CCCCCCCC)COP(=O)([O-])OCC[N+](C)(C)C [PC(36:2)]

- collision cross section (N2) ([3]; [M+H]+): 283 Å²
- collision cross section (N2) ([3]; [M+Na]+): 284.2 Å²
- collision cross section (N2) ([3]; [M-H]-): 277.5 Å²
- collision cross section (N2) ([4]; [M-H]-): 285 Å² and 286.5 Å²
- collision cross section (N2) ([5]; [M-H]-): 277.4 Å²
SMILES: CCCCC/C=C\C/C=C\CCCCCCCCCCCC(=O)O[C@H](COC(=O)CCCCCCCCCCCCC)COP(=O)(O)OC[C@H](N)C(=O)O [PS(36:2)]

- collision cross section (N2) ([6]; [M-H]-): 201.11 Å²
SMILES: CCCCCCCCCCCCCCCCCCCCCCCC(=O)O [Lignoceric acid]

- collision cross section (N2) ([6]; [M-H]-): 175.69 Å²
- collision cross section (N2) ([7]; [M-H]-): 173.24 Å²
SMILES: CCCCC/C=C\C/C=C\CCCCCCCC(=O)O [Linoleic acid]

- collision cross section (N2) [9]: 278 Å²
- collision cross section (N2) ([4]; [M-H]-): 266.5 Å²
SMILES: CCCCC/C=C\C/C=C\C/C=C\CCCCC(=O)O[C@H](COCCCCCCCCCCCCCCCC)COP(=O)(O)OCCN [PE(o34:3)]

- collision cross section (N2) ([3]; [M+H]+): 244.7 Å²
- collision cross section (N2) ([3]; [M-H]-): 236.8 Å²
- collision cross section (N2) ([4]; [M-H]-): 236.1 Å²
SMILES: CCCCCCCCCCCCCCCCCC(=O)OC[C@@H](O)COP(=O)(O)O[C@H]1C(O)C(O)C(O)[C@@H](O)C1O (stereo not given in full) [LPI(18:0)]

- collision cross section (N2) ([6]; [M-H]-): 167.95 Å²
SMILES: CCCCCC/C=C\CCCCCCCC(=O)O [Palmitoleic acid]

- collision cross section (N2) ([6]; [M-H]-): 186.17 Å²
SMILES: CCCCCCCCCCCCCCCCCCCC(=O)O [Eicosanoic acid]
